According to patent US20120052099A1, “PHARMACEUTICAL COMPOSITION CONTAINING ARBIDOL IN THE FORM OF PHOSPHOLIPID NANOPARTICLES” (priority 2009, published 2012):
Entries after “also recorded” stand apart in the source; their conditions may differ. Where a name gives a salt, the structure may show the parent alone.

Key:
[1] = used internally; cited from earlier work
[2] = test system: whole blood; assay: Hemolysis on addition to whole blood in vitro; assay type: cell-based; details: 50 μl of 5 mg/ml Arbidol added to 950 μl whole blood, 37° C., 20 minutes
[3] = Bioaccessibility (pharmacokinetics) after peroral administration in rats; assay type: in vivo; set-up: area (chromatogram peak), blood: unit not given here; details: 25 mg/kg
Method: 1. The content of an NF Arbidol flask was dissolved in 5 ml. (A) 2. An Arbidol solution was prepared at a concentration of 5 mg/ml (suspension in water). (B) 3. Feed was withdrawn from the animals, leaving them water only, 24 hours before the experiment, and the animals were weighed on the day of the experiment. 4. 1 ml of solution A and B was administered perorally to the rats. 5. Blood was collected at intervals of 5, 10, 15, 30, and 45 minutes into eppendorfs containing EDTA. After an eppendorf was filled, it was shaken intensively. 6. Blood treatment: 900 μl of methanol was added to 100 μl of blood and agitated intensively for 3 to 5 minutes. The mixture was centrifuged to cause sedimentation of proteins. It was then analyzed by high-performance liquid chromatography for presence of Arbidol in the samples.
The dose administered was 25 mg/kg.

[4] = cited from earlier work
[5] = 10 minutes after administration
[6] = 15 minutes after administration
[7] = 30 minutes after administration

CCOC(=O)c1c(CSc2ccccc2)n(C)c2cc(Br)c(O)c(CN(C)C)c12 [Arbidol, ethyl ester of 6-bromo-5-hydroxy-1-methyl-4-dimethylaminomethyl-2-phenylthiomethylindole-3-carbonic acid hydrochloride monohydrate]
T1/2 [1]: approximately 17 hours | Hemolysis if added to whole blood [2]: causes hemolysis | area (chromatogram peak), blood ([3]; 5 minutes after administration): 0/0 | concentration in blood ([3]; 5 minutes after administration): 0/0 μg/ml | area (chromatogram peak), blood [3, 5]: 1.2 | concentration in blood [3, 5]: 0.3 µg/mL | area (chromatogram peak), blood [3, 6]: 7.69 | concentration in blood [3, 6]: 2.4 µg/mL | area (chromatogram peak), blood [3, 7]: 1.6 | concentration in blood [3, 7]: 0.4 µg/mL | solubility in ethanol ([4]; ethanol): dissolved only slightly in ethanol | solubility in water ([4]; water, hydrochloride monohydrate): practically insoluble in water; also recorded: not soluble in water; also recorded: not dissolved in water
